# Data from EP1100483B1, “GLUCOCORTICOID-SELECTIVE ANTI-INFLAMMATORY AGENTS” (Abbott Laboratories, priority 1998, dated 2000).
# Target: T1, human progesterone receptor-A [PRA] isoform (Homo sapiens, UniProt P06401)
# T1 construct: purchased Ligand Pharmaceuticals (San Diego, CA); host or cells: insect SF21 cells (baculovirus)
# T1 sequence (P06401 1-769 isoform P06401-2): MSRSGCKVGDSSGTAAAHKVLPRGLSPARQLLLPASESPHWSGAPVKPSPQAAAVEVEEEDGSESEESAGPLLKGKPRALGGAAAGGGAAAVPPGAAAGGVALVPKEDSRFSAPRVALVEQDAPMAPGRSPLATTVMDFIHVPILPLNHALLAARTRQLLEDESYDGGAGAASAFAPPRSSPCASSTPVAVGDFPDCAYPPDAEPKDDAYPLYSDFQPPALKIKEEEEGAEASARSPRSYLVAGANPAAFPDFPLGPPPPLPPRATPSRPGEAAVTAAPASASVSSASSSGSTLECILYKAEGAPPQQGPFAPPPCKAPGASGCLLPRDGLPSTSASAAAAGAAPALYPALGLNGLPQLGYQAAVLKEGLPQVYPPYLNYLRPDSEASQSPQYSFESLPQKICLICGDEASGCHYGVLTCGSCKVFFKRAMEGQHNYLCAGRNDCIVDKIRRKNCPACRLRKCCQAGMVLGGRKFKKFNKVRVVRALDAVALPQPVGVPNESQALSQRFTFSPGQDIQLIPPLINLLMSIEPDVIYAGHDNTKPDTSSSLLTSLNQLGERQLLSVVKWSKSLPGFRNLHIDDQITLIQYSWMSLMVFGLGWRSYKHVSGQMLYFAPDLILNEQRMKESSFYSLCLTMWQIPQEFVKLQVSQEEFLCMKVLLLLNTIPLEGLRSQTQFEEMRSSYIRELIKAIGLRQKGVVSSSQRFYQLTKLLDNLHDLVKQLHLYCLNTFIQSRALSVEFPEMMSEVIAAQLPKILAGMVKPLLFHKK
# Test: progesterone receptor cytosol (PR) binding assay, [3H]-progesterone competition
# Conditions: [3H]Prog ~0.8 nM, 4 °C overnight, Cheng-Prusoff
# From the text: For glucocorticoid receptor (OR) cytosol binding assays, the procedure described in Anal. Biochem. 1970, 37, 244-252, hereby incorporated by reference, was used. Briefly, cytosol preparations of human glucocorticoid receptor-α [GRX] isoform and human progesterone receptor-A [PRA] isoform were obtained from Ligand Pharmaceuticals (San Diego, CA). Both receptor cDNAs were cloned into baculovirus expression vectors and expressed in insect SF21 cells. [^3H]-dexamethasone (Dex, specific activity 82-86 Ci/mmole) and [^3H]-progesterone (Prog, specific activity 97-102 Ci/mmol) were purchased from Amersham Life Sciences (Arlington Heights, IL). Glass fiber type C multiscreen MAFC NOB plates were from Millipore ( Burlington, MA). Hydroxyapatide Bio-Gel HTP gel was obtained from Bio-Rad Laboratories (Hercules. CA). Tris(hydroxymethyl)aminomethane (Tris), ethylenediaminetetraacetic acid (EDTA), glycerol, dithiothreitol (DTT) and sodium moylybdate were obtained from Sigma Chemicals (St. Louis, MO). Microscint-20 scintillation fluid was obtained from Packard Instrument (Meriden, CT).
# Stock solutions (32 mM) of compounds were prepared in dimethylsulfoxide (DMSO), and 50X solutions of test compounds were prepared from the 32 mM solution with a 50:50 mixture of DMSO/ethanol. The 50X solution was then diluted with binding buffer that contained 10 mM Tri-HCl, 1.5 mM EDTA, 10% glycerol, 1 mM DTT, 20 mM sodium molybdate. pH 7.5 at 4 °C. 1% DMSO/ethanol was also present in the binding assay.
# For progesterone receptor cytosol (PR) binding assays, [^3H]Prog (~36,000 dpm (∼0.8 nM)), PRA cytosol (~40 µg protein), test compounds and binding buffer were mixed in a total volume of 200 µL and incubated at 4 °C overnight in a plate shaker. Specific binding was defined as the difference between binding of [^3H]Prog in the absence and in the presence of 3 µM unlabeled Prog.
# After an overnight incubation, 50 µL of hydroxyapatite (25 % weight/volume) slurry were added to each well and plates were incubated for 10 min at 4 °C in a plate shaker. Plates were suctioned with a Millipore vacuum manifold and each well was rinsed with 300 µL of ice-cold binding buffer. A 250 µL aliquot of Packard Microscint-20 was added to each well and the wells were shaken at room temperature for 20 minutes. The amount of radioactivity was determined with a Packard TopCount plate reader.
# The Ki of test compounds was determined using the Cheng-Prusoff equation Ki =IC50/(1+[L*]/[KL]) where L* is the concentration of radioligand and KL is the dissociation constant of the radioligand determined from saturation analysis. For GRX, KL was ∼1.5 nM, and for PRA, KL was ~4.5 nM.
row,SMILES,Ki
1,"CNc1ccc(C(c2ccc(NC)cc2)c2cc(Cl)ccc2Cl)cc1 [Example 27, 4',4"" bis(methylamino)-2,5-dichlorotriphenylmethane]",318 nM
2,"CNc1ccc(C(c2ccc(N(C)CCOC(C)=O)cc2)c2cc([N+](=O)[O-])ccc2Cl)cc1 (stereo not shown) [Example 49, 4'-methylamino-4""-(N-(2-acetoxyethyl)-N-methylamino)-2-chloro-5-nitrotriphenylmethane]",241 nM
3,"CNc1ccc(C(c2ccc(N(C)C)cc2)c2cc([N+](=O)[O-])ccc2Cl)cc1 (stereo not shown) [Example 39, 4'-dimethylamino-4""-methylamino-2-chloro-5-nitrotriphenylmethane]",510 nM
4,"CC(=O)OCCN(C)c1ccc(C(c2ccc(N(C)CCOC(C)=O)cc2)c2cc([N+](=O)[O-])ccc2Cl)cc1 [Example 31, 4',4"" bis(N-(2-acetoxyethyl) N-methylamino)-2-chloro-5-nitrotriphenylmethane]",2680 nM
5,"CN(C)c1ccc(C(c2ccc(N(C)C)cc2)c2cc([N+](=O)[O-])ccc2Cl)cc1 [Example 1, 4',4"" bis(dimethylamino)-2-chloro-5-nitrotriphenylmethane]",> 10000 nM
6,"CNc1ccc(C(c2ccc(NC)cc2)c2cc([N+](=O)[O-])ccc2Cl)cc1 [Example 23, 4',4"" bis(methylamino)-2-chloro-5-nitrotriphenylmethane]",624 nM
7,"CN(C)c1ccc(C(Oc2ccccc2)c2cc([N+](=O)[O-])ccc2Cl)cc1 (stereo not shown) [Example 52, phenyl-[(4'-dimethylaminophenyl)-(2-chloro-5-nitrophenyl)methyl] ether]",698 nM
8,"CN(C)c1ccc(C(c2ccc(N(C)CCO)cc2)c2cc([N+](=O)[O-])ccc2Cl)cc1 (stereo not shown) [Example 42, 4'-dimethylamino-4""-(N-methyl-N-(2-hydroxyethyl)amino)-2-chloro-5-nitrotriphenylmethane]",187 nM
9,"CC(=O)OCCN(C)c1ccc(C(c2ccc(N(C)C)cc2)c2cc([N+](=O)[O-])ccc2Cl)cc1 (stereo not shown) [Example 51, 4'-dimethylamino-4""-(N-methyl-N-(2-acetoxyethyl)amino)-2-chloro-5-nitrotriphenylmethane]",1080 nM
10,"CN(C)c1ccc(C(c2ccc(N(C)C)cc2)c2cc(Cl)ccc2Cl)cc1 [Example 24, 4',4"" bis(dimethylamino)-2,5-dichlorotriphenylmethane]",2590 nM
11,"CN(CCO)c1ccc(C(c2ccc(N(C)CCO)cc2)c2cc([N+](=O)[O-])ccc2Cl)cc1 [Example 32, 4',4"" bis(N-(2-hydroxyethyl) N-methylamino)-2-chloro-5-nitrotriphenylmethane]",536 nM
12,"O=[N+]([O-])c1ccc(Cl)c(C(c2ccc(NCc3ccccc3)cc2)c2ccc(NCc3ccccc3)cc2)c1 [Example 36, 4',4"" bis(N-benzylamino)-2-chloro-5-nitrotriphenylmethane]",2590 nM
13,"CN(C)c1ccc(C(Sc2ccccc2)c2cc([N+](=O)[O-])ccc2Cl)cc1 (stereo not shown) [Example 54, phenyl-[(4'-dimethylaminophenyl)-(2-chloro-5-nitrophenyl)methyl]thioether]",2590 nM
